Results from US10066025B2, “Compositions and methods for detecting, treating and preventing diseases and disorders” (YALE UNIVERSITY, priority 2012, dated 2018).
“Also recorded” adds a separate entry of the source.

Legend:
[1] = system: renal ischemia/reperfusion (IR) injury; experiment: Murine model of renal ischemia/reperfusion (IR) injury, plasma creatinine; format: in vivo, mice; conditions: renalase peptides 100 μg subcutaneous 10 to 30 min prior to 30 min renal ischemia, WT mice
Procedure: Adult male renalase deficient (KO) mice (Wu et al., 2011, Kidney Int 79: 853-860) on a C57BL/6 background were subjected to renal ischemia/reperfusion (IR) as described (Kim et al., 2009, Kidney Int 75: 809-823; Kim et al., 2010, Am J Physiol Renal Physiol 299(2):F347-58). Renalase KO or wild type (WT) mice (C57BL/6 from Harlan Labs, Indianapolis, Ind.) were subjected to sham-operation or to 20 min. (moderate) or 30 min. (severe) renal ischemia and 24 hr. reperfusion. To test the renal protective effects of recombinant human renalase, mice were pretreated with saline (vehicle) or with recombinant renalase (0.5, 1.5 or 4.5 mg/kg, s.c.) 10 min. prior to 30 min. renal ischemia. It was also tested whether renalase treatment after completion of renal ischemia also provides renal protection. Separate cohorts of mice were treated with saline or with renalase (1.5 mg/kg, s.c.) 30 min. or 60 min. after reperfusion of the ischemic kidney. To test whether blocking alpha receptors would mimic the renal protective effects of human recombinant renalase administration, phentolamine (an alpha receptor antagonist, 5 mg/kg, i.p.) was given in some mice 15 min. before renal ischemia.
Plasma creatinine was measured as described with an enzymatic creatinine reagent kit according to the manufacturer's instructions (Thermo Fisher Scientific, Waltham, Mass.) (Slot, 1965, J Clin Lab Invest 17: 381-387).
After animal care and use committee approval, adult male C57BL/6 (Harlan Labs, Indianapolis, Ind.) were subjected to sham-operation or to 30 minutes of renal ischemia followed by 24 hrs of reperfusion as previously described (Lee et al., 2004, American journal of physiology. Renal physiology 286:F298-306). To test the renal protective effects of renalase peptides (RP-220, RP-H220 and RP-224), mice were pretreated with saline (vehicle) or with renalase peptides (100 μg subcutaneous) 10 to 30 minutes prior to renal ischemia.
Blood was collected from mice anesthetized with isoflurane via cardiac puncture into a heparinized syringe and was subsequently centrifuged to separate plasma. Samples were submitted to the Yale O'Brien Kidney Center for measurement of BUN and creatinine. Plasma creatinine was measured either by an enzymatic creatinine reagent kit according to the manufacturer's instructions (Thermo Fisher Scientific, Waltham, Mass.) or by HPLC. These methods of creatinine measurement largely eliminate the interferences from mouse plasma chromagens, known to occur with the Jaffe method.

[2] = system: PI3K/AKT and MAPK pathways; experiment: AKT and MAPK signaling and Bcl-2 expression by western blot; format: cell-based, human
Procedure: FIG. 12, comprising FIGS. 12A through 12E, is a set of images and graphs showing renalase upregulates Bcl-2, activates PI3K/AKT, ERK, p38, and inhibits JNK. Western blot analysis; P− indicates phosphorylated, activated proteins; signals normalized to GAPDH loading control, then changes in protein phosphorylation (increase=activation, decrease=inhibition) from time 0 are calculated. FIG. 12A: HK-2 and HUVEC cells incubated with renalase for 24 hrs; FIG. 12B: Western blot of time course of AKT and MAPK signaling by renalase, HK-2 cells incubated with renalase for indicated time; changes over baseline in 4c-d are significant (p<0.05); FIG. 12C: Activation of AKT(T308), AKT(5473) and ERK; FIG. 12D: Inhibition of JNK; FIG. 12E: Marked and sustained (60 min) upregulation of p38 by renalase in the presence of cisplatin, western blot for time course, REN=renalase, CP=cisplatin.
MAPK signaling by renalase and renalase peptides. Western blot analysis; ERK: Extracellular signal-Regulated Kinase 1 and 2; JNK: c-Jun N-terminal Kinases; AKT: protein kinase B; p-indicates phosphorylated, activated proteins; representative blot, n=3 (FIG. 20A). Renalase activates AKT (FIG. 20B). Western blot analysis; P− indicates phosphorylated, activated proteins Representative blot, n=3 (FIG. 20B, left panel). Signals normalized to GAPDH loading control; n=3, change over baseline statistically significant (P<0.05) from 1-60 min for ERK, p38 and AKT (T308), and at 30 min only for AKT (S473) (FIG. 20B, right panel). ERK or AKT inhibition abrogates protective effect of RP-H220 (FIG. 20C). Plasma creatinine levels from mice subjected to sham-surgery or to renal ischemia and reperfusion (IR); Renalase WT mice were subjected to sham-surgery or to 30 min renal IR. For mice subjected to renal IR, RP-H220 or vehicle (saline) was injected 10 min prior to renal ischemia. Some animals were pretreated with either the ERK inhibitor PD98059 or the PI3K/AKT inhibitor wortmanin. (N=6-8 per group). *: P<0.05 vs. vehicle-treated mice subjected to sham-surgery; #: P<0.05 vs. vehicle-treated WT mice subjected to renal IR (FIG. 20C).

[3] = system: systemic blood pressure; experiment: Blood pressure and heart rate in anesthetized mice; format: in vivo; conditions: for effect on systemic blood pressure: IV and subcutaneous administration, mice
Procedure: As in 14A, except that RP-H220 is injected; no significant changes in blood pressure (FIG. 14B). Effect of a single intravenous injection of RP-220 (squares) and RP-H220 (diamonds) on heart rate in wild type mice (FIG. 14C).
FIG. 21 depicts the results of experiments examining the effect of RP-220 injection on blood pressure. A single subcutaneous injection of RP-220 (n=3) or buffer (n=2) in anesthetized wild type mice; BP pressure is recorded continuously; RP-220 is given at time 0; each data point represents the mean pressure; the standard error of the means are shown.
Systolic and diastolic pressure and heart rate were measured in anesthetized mice as previously described (Desir et al., 2012, J Am Heart Assoc. 1:e002634).

RP H220: histidine tagged RP-220, SEQ ID NO: 4, HHHHHHCIRFVSIDNKKRNIESSEIG (listed as Homo sapiens)
protection against ischemic AKI (renal injury, plasma creatinine at 24 hr) [1]: protected against ischemia | protection against ischemic AKI (renal injury, plasma creatinine at 24 hr) ([1]; listed as RP-H220): reduced renal injury; also recorded: more effective than RP-220; also recorded: ameliorated the renal ischemic injury | return of phosphorylation to baseline ([2]; HK-2 cells): ≤ 60 min | time to detectable increased phosphorylation ([2]; HK-2 cells): ≤ 1 min | JNK phosphorylation ([2]; at 60 min): decreased | effect on systemic blood pressure [3]: nor significant effect on systemic blood pressure; also recorded: no effect on BP | effect on systemic blood pressure ([3]; listed as RP-H220): neither intravenous nor subcutaneous injection of RP-H220 had any effect on blood pressure | heart rate ([3]; anesthetized WT mice): did not change
